Values quoted from earlier work in patent US20060189550A1, “Immunostimulatory, Covalently lipidated oligonucleotides” (Biomira Inc., priority 2002, published 2006).

Details: Table K-2, reference compounds; experimental database value from LogKow
For `Cc1c[nH]c2ccccc12` [3-methyl indole], the “LogP Exp” value is listed as 2.60.
In the case of `CCSC` [Ethane, (methylthio)-], the “LogP Exp” value is given as 1.54.
For `CCCCOC` [methyl n-butyl ether], the “LogP Exp” value is given as 1.66.
For `O=c1ccc2cc3ccoc3cc2o1` [psoralen], the “LogP Exp” value is listed as 1.67.
